# Results reported in publication PMC5218480 (PLoS ONE, 2017).
# System: MV-4-11 cells
# Assay: Gene expression microarray analysis (Affymetrix PrimeView) and GSEA
# Format: cell-based, human
# Set-up: RFU PODN (11730768_x_at) / Fold change /veh PODN (11730768_x_at) / RFU LINC00158 (11744669_a_at) / Fold change /veh LINC00158 (11744669_a_at) / RFU DUSP10 (11751237_a_at) / Fold change /veh DUSP10 (11751237_a_at) / RFU ID3 (11757404_x_at) / Fold change /veh ID3 (11757404_x_at) / RFU PLEKHG5 (11737974_s_at) / Fold change /veh PLEKHG5 (11737974_s_at) / RFU LRRC4B (11730491_at) / Fold change /veh LRRC4B (11730491_at) / RFU GIMAP4 (11747438_a_at) / Fold change /veh GIMAP4 (11747438_a_at) / RFU KRT8 (11758183_x_at) / Fold change /veh KRT8 (11758183_x_at) / RFU CNN1 (11734310_a_at) / Fold change /veh CNN1 (11734310_a_at) / RFU VPS37D (11726825_at) / Fold change /veh VPS37D (11726825_at) / RFU C10orf10 (11716522_x_at) / Fold change /veh C10orf10 (11716522_x_at) / RFU KIR2DL2 /// KIR2DL4 /// KIR2DL5A /// KIR2DL5B /// KIR2DS1 /// KIR2DS2 /// KIR2DS3 /// KIR2DS4 /// KIR3DL3 /// KIR3DL3 /// KIR3DS1 (11738374_at) / Fold change /veh KIR2DL2 /// KIR2DL4 /// KIR2DL5A /// KIR2DL5B /// KIR2DS1 /// KIR2DS2 /// KIR2DS3 /// KIR2DS4 /// KIR3DL3 /// KIR3DL3 /// KIR3DS1 (11738374_at) / RFU C1QL1 (11718748_at) / Fold change /veh C1QL1 (11718748_at) / RFU TMPRSS4 (11747572_a_at) / Fold change /veh TMPRSS4 (11747572_a_at) / RFU HAMP (11756126_x_at) / Fold change /veh HAMP (11756126_x_at) / RFU RNFT2 (11725882_a_at) / Fold change /veh RNFT2 (11725882_a_at) / RFU NR4A2 (11747474_a_at) / Fold change /veh NR4A2 (11747474_a_at) / RFU ABCC12 (11746883_a_at) / Fold change /veh ABCC12 (11746883_a_at) / RFU TMEM136 (11760407_x_at) / Fold change /veh TMEM136 (11760407_x_at) / RFU CLDN22 /// WWC2 (11732394_at) / Fold change /veh CLDN22 /// WWC2 (11732394_at) / RFU HLA-DPB1 (11760878_x_at) / Fold change /veh HLA-DPB1 (11760878_x_at) / RFU SPINT1 (11716480_a_at) / Fold change /veh SPINT1 (11716480_a_at) / RFU GAP43 (11754022_s_at) / Fold change /veh GAP43 (11754022_s_at) / RFU A4GNT (11735810_at) / Fold change /veh A4GNT (11735810_at) / RFU PRB3 (11715151_x_at) / Fold change /veh PRB3 (11715151_x_at) / RFU TUBB4B (11761932_at) / Fold change /veh TUBB4B (11761932_at) / RFU CAPN14 (11732068_a_at) / Fold change /veh CAPN14 (11732068_a_at) / RFU TMCC2 (11721928_a_at) / Fold change /veh TMCC2 (11721928_a_at) / RFU IRGQ (11745062_a_at) / Fold change /veh IRGQ (11745062_a_at) / RFU FAM174B (11720279_a_at) / Fold change /veh FAM174B (11720279_a_at) / RFU TMPRSS4 (11748680_a_at) / Fold change /veh TMPRSS4 (11748680_a_at) / RFU FAM212B (11763350_a_at) / Fold change /veh FAM212B (11763350_a_at) / RFU PLEKHG5 (11743358_a_at) / Fold change /veh PLEKHG5 (11743358_a_at) / RFU ZSCAN30 (11745921_a_at) / Fold change /veh ZSCAN30 (11745921_a_at) / RFU CMKLR1 (11741424_a_at) / Fold change /veh CMKLR1 (11741424_a_at) / RFU LOC101060620 /// MAPK8IP1 (11723275_at) / Fold change /veh LOC101060620 /// MAPK8IP1 (11723275_at) / RFU SPTSSB (11747773_x_at) / Fold change /veh SPTSSB (11747773_x_at) / RFU PRSS12 (11739890_at) / Fold change /veh PRSS12 (11739890_at) / RFU BIN1 (11741810_x_at) / Fold change /veh BIN1 (11741810_x_at) / RFU WNT11 (11732464_a_at) / Fold change /veh WNT11 (11732464_a_at) / RFU C10orf10 (11716521_a_at) / Fold change /veh C10orf10 (11716521_a_at) / RFU C5orf56 (11738089_at) / Fold change /veh C5orf56 (11738089_at) / RFU CYB561 (11721691_x_at) / Fold change /veh CYB561 (11721691_x_at) / RFU ANKRD19P (11752326_a_at) / Fold change /veh ANKRD19P (11752326_a_at) / RFU OR2T12 /// OR2T33 /// OR2T8 (11738714_s_at) / Fold change /veh OR2T12 /// OR2T33 /// OR2T8 (11738714_s_at) / RFU VCAN (11748164_a_at) / Fold change /veh VCAN (11748164_a_at) / RFU JSRP1 (11732532_at) / Fold change /veh JSRP1 (11732532_at) / RFU KRTAP10-11 (11738290_x_at) / Fold change /veh KRTAP10-11 (11738290_x_at) / RFU MYO3A (11730013_a_at) / Fold change /veh MYO3A (11730013_a_at) / RFU EBF3 (11725865_a_at) / Fold change /veh EBF3 (11725865_a_at) / RFU CAMK2N1 (11719241_x_at) / Fold change /veh CAMK2N1 (11719241_x_at) / RFU C5orf56 (11738088_a_at) / Fold change /veh C5orf56 (11738088_a_at) / RFU OLFML3 (11715873_a_at) / Fold change /veh OLFML3 (11715873_a_at) / RFU LOC100653217 /// NTM (11731650_a_at) / Fold change /veh LOC100653217 /// NTM (11731650_a_at) / RFU MAPK11 (11762145_a_at) / Fold change /veh MAPK11 (11762145_a_at) / RFU FIZ1 (11724087_x_at) / Fold change /veh FIZ1 (11724087_x_at) / RFU OASL (11726364_x_at) / Fold change /veh OASL (11726364_x_at) / RFU SOX15 (11748057_x_at) / Fold change /veh SOX15 (11748057_x_at) / RFU CD79A (11719716_a_at) / Fold change /veh CD79A (11719716_a_at) / RFU HIST1H1D (11736915_at) / Fold change /veh HIST1H1D (11736915_at) / RFU CASKIN2 (11723855_a_at) / Fold change /veh CASKIN2 (11723855_a_at) / RFU LOC730098 (11760151_x_at) / Fold change /veh LOC730098 (11760151_x_at) / RFU OR4N2 (11742367_at) / Fold change /veh OR4N2 (11742367_at) / RFU PRRT2 (11749266_a_at) / Fold change /veh PRRT2 (11749266_a_at) / RFU SNX32 (11753110_a_at) / Fold change /veh SNX32 (11753110_a_at) / RFU CDHR5 (11726645_a_at) / Fold change /veh CDHR5 (11726645_a_at) / RFU RCAN1 (11760418_a_at) / Fold change /veh RCAN1 (11760418_a_at) / RFU FAM167A (11723789_a_at) / Fold change /veh FAM167A (11723789_a_at) / RFU FAM26E (11764081_at) / Fold change /veh FAM26E (11764081_at) / RFU ISYNA1 (11749810_s_at) / Fold change /veh ISYNA1 (11749810_s_at) / RFU ACY1 (11761880_at) / Fold change /veh ACY1 (11761880_at) / RFU 11764098_at / Fold change /veh 11764098_at / RFU SAMD14 (11745864_x_at) / Fold change /veh SAMD14 (11745864_x_at) / RFU NPB (11741838_a_at) / Fold change /veh NPB (11741838_a_at) / RFU TMPRSS6 (11731388_a_at) / Fold change /veh TMPRSS6 (11731388_a_at) / RFU KRTAP10-2 (11738614_at) / Fold change /veh KRTAP10-2 (11738614_at) / RFU ARHGAP8 /// PRR5-ARHGAP8 (11727945_x_at) / Fold change /veh ARHGAP8 /// PRR5-ARHGAP8 (11727945_x_at) / RFU KRTAP5-7 /// NADSYN1 (11734609_at) / Fold change /veh KRTAP5-7 /// NADSYN1 (11734609_at) / RFU RASL12 (11751679_a_at) / Fold change /veh RASL12 (11751679_a_at) / RFU CDKN2B (11736163_a_at) / Fold change /veh CDKN2B (11736163_a_at) / RFU PRF1 (11729649_at) / Fold change /veh PRF1 (11729649_at) / RFU, ZNF638 /// ZNF638-IT1 / Fold change vs veh, ZNF638 /// ZNF638-IT1 / RFU, PANK3 / Fold change vs veh, PANK3 / RFU, SH3YL1 / Fold change vs veh, SH3YL1 / RFU, ZEB2 / Fold change vs veh, ZEB2 / RFU, NRIP1 / Fold change vs veh, NRIP1 / RFU, PTTG1IP / Fold change vs veh, PTTG1IP / RFU, CAPN2 / Fold change vs veh, CAPN2 / RFU, MED14 / Fold change vs veh, MED14 / RFU, SNORA58 / Fold change vs veh, SNORA58 / RFU, C1orf63 / Fold change vs veh, C1orf63 / RFU, LRRFIP1 / Fold change vs veh, LRRFIP1 / RFU, NDUFAF7 / Fold change vs veh, NDUFAF7 / RFU, SLC12A2 / Fold change vs veh, SLC12A2 / RFU, IBTK / Fold change vs veh, IBTK / RFU, ESF1 / Fold change vs veh, ESF1 / Fold change vs veh, TMEM50B / RFU, TAOK1 / Fold change vs veh, TAOK1 / RFU, ACBD3 / Fold change vs veh, ACBD3 / RFU, TMA16 / Fold change vs veh, TMA16 / RFU, RWDD3 / Fold change vs veh, RWDD3 / RFU, BCAT1 / Fold change vs veh, BCAT1 / RFU, EDEM3 / Fold change vs veh, EDEM3 / RFU, TMEM33 / Fold change vs veh, TMEM33 / RFU, WDR75 / Fold change vs veh, WDR75 / RFU, AHCTF1 / Fold change vs veh, AHCTF1 / RFU, TFRC / Fold change vs veh, TFRC / RFU, ZDHHC17 / Fold change vs veh, ZDHHC17 / RFU, NOM1 / Fold change vs veh, NOM1 / RFU, ARL8B / Fold change vs veh, ARL8B / RFU, ZBTB11 / Fold change vs veh, ZBTB11 / RFU, TAMM41 / Fold change vs veh, TAMM41 / RFU, KIAA1704 /// LOC100996395 / Fold change vs veh, KIAA1704 /// LOC100996395 / RFU, ING1 / Fold change vs veh, ING1 / RFU, TRMT61B / Fold change vs veh, TRMT61B / RFU, FUBP3 / Fold change vs veh, FUBP3 / RFU, TP53 / Fold change vs veh, TP53 / RFU, TNKS2 / Fold change vs veh, TNKS2 / RFU, ZFP14 / Fold change vs veh, ZFP14 / RFU, ACTR2 / Fold change vs veh, ACTR2 / RFU, PPP3R1 / Fold change vs veh, PPP3R1 / RFU, PIK3R1 / Fold change vs veh, PIK3R1 / RFU, HNRNPA1 / Fold change vs veh, HNRNPA1 / RFU, RNF170 / Fold change vs veh, RNF170 / RFU, ZNF28 / Fold change vs veh, ZNF28 / RFU, RNGTT / Fold change vs veh, RNGTT / RFU, OGT / Fold change vs veh, OGT / RFU, BRD1 / Fold change vs veh, BRD1 / RFU, MARS / Fold change vs veh, MARS / RFU, ZNF655 / Fold change vs veh, ZNF655 / RFU, FAHD1 / Fold change vs veh, FAHD1 / RFU, BDP1 / Fold change vs veh, BDP1 / RFU, LRRCC1 / Fold change vs veh, LRRCC1 / RFU, ARID1A / Fold change vs veh, ARID1A / RFU, ZNF146 / Fold change vs veh, ZNF146 / RFU, ZNF330 / Fold change vs veh, ZNF330 / RFU, GPN3 / Fold change vs veh, GPN3 / RFU, C9orf123 / Fold change vs veh, C9orf123 / RFU, N4BP2L2 / Fold change vs veh, N4BP2L2 / RFU, ARFIP1 / Fold change vs veh, ARFIP1 / RFU, FAM179B / Fold change vs veh, FAM179B / RFU, BCL10 / Fold change vs veh, BCL10 / RFU, UHRF1BP1L / Fold change vs veh, UHRF1BP1L / RFU, BET1 / Fold change vs veh, BET1 / RFU, CNOT2 / Fold change vs veh, CNOT2 / RFU, ZNF268 / Fold change vs veh, ZNF268 / Fold change vs veh, ZNF507 / RFU, DGCR2 / Fold change vs veh, DGCR2 / RFU, WDSUB1 / Fold change vs veh, WDSUB1 / Fold change vs veh, HSP90B1 /// MIR3652 / RFU, ADSS / Fold change vs veh, ADSS / RFU, GK / Fold change vs veh, GK / RFU, ZNF148 / Fold change vs veh, ZNF148 / RFU, TAF9 / Fold change vs veh, TAF9 / RFU, SLC1A5 / Fold change vs veh, SLC1A5 / RFU, SLMO2 / Fold change vs veh, SLMO2 / RFU, ABCC4 / Fold change vs veh, ABCC4 / RFU, LOC101060439 /// RAP1B / Fold change vs veh, LOC101060439 /// RAP1B / RFU, RFX7 / Fold change vs veh, RFX7 / RFU, GTPBP10 / Fold change vs veh, GTPBP10 / RFU, CNEP1R1 / Fold change vs veh, CNEP1R1 / RFU, BIVM-ERCC5 /// ERCC5 / Fold change vs veh, BIVM-ERCC5 /// ERCC5 / RFU, ILF3 / Fold change vs veh, ILF3 / RFU 11762660_at / Fold change /veh 11762660_at / RFU VCAN (11757783_s_at) / Fold change /veh VCAN (11757783_s_at) / RFU DDX43 (11728927_at) / Fold change /veh DDX43 (11728927_at) / RFU KRT8 (11758188_x_at) / Fold change /veh KRT8 (11758188_x_at) / RFU NKD1 (11759106_at) / Fold change /veh NKD1 (11759106_at) / RFU SRD5A1 (11742802_a_at) / Fold change /veh SRD5A1 (11742802_a_at) / RFU TPSAB1 /// TPSB2 (11721975_s_at) / Fold change /veh TPSAB1 /// TPSB2 (11721975_s_at) / RFU GSTM3 (11746129_a_at) / Fold change /veh GSTM3 (11746129_a_at) / RFU IL23R (11737362_x_at) / Fold change /veh IL23R (11737362_x_at) / RFU TMEM51 (11727254_a_at) / Fold change /veh TMEM51 (11727254_a_at) / RFU PIWIL2 (11732686_x_at) / Fold change /veh PIWIL2 (11732686_x_at) / RFU ORM1 (11744905_x_at) / Fold change /veh ORM1 (11744905_x_at) / RFU CCDC152 (11743942_at) / Fold change /veh CCDC152 (11743942_at) / RFU ECM1 (11717891_a_at) / Fold change /veh ECM1 (11717891_a_at) / RFU IL23R (11748794_a_at) / Fold change /veh IL23R (11748794_a_at) / RFU TNFAIP8L3 (11732012_x_at) / Fold change /veh TNFAIP8L3 (11732012_x_at) / RFU MBOAT4 (11741988_at) / Fold change /veh MBOAT4 (11741988_at) / RFU 11764193_at / Fold change /veh 11764193_at / RFU TMEM53 (11763286_at) / Fold change /veh TMEM53 (11763286_at) / RFU MAGEB2 (11727129_at) / Fold change /veh MAGEB2 (11727129_at) / RFU TMEM200A (11744735_a_at) / Fold change /veh TMEM200A (11744735_a_at) / RFU CCDC152 (11751479_a_at) / Fold change /veh CCDC152 (11751479_a_at) / RFU FAM211A (11726209_a_at) / Fold change /veh FAM211A (11726209_a_at) / RFU RGS16 (11746705_a_at) / Fold change /veh RGS16 (11746705_a_at) / RFU VCAN (11755009_s_at) / Fold change /veh VCAN (11755009_s_at) / RFU RHOB (11743442_s_at) / Fold change /veh RHOB (11743442_s_at) / RFU RGS16 (11720943_a_at) / Fold change /veh RGS16 (11720943_a_at) / RFU RGS16 (11720944_at) / Fold change /veh RGS16 (11720944_at) / RFU, VPS4B / Fold change vs veh, VPS4B / RFU, CREB1 / Fold change vs veh, CREB1 / RFU, DNAJC13 / Fold change vs veh, DNAJC13 / RFU, GNAQ / Fold change vs veh, GNAQ / RFU, CDK5R1 / Fold change vs veh, CDK5R1 / RFU, ZRANB3 / Fold change vs veh, ZRANB3 / RFU, CUL4A / Fold change vs veh, CUL4A / RFU, CCNY / Fold change vs veh, CCNY / RFU, UFL1 / Fold change vs veh, UFL1 / RFU, COG3 / Fold change vs veh, COG3 / RFU, DIAPH2 / Fold change vs veh, DIAPH2 / RFU, SKA2 / Fold change vs veh, SKA2 / RFU, AFF3 / Fold change vs veh, AFF3 / RFU, LMF1 / Fold change vs veh, LMF1 / RFU, IPO11 / Fold change vs veh, IPO11 / RFU, DFFB / Fold change vs veh, DFFB / RFU, FOXP1 / Fold change vs veh, FOXP1 / RFU, CARD8 / Fold change vs veh, CARD8 / RFU, STRN3 / Fold change vs veh, STRN3 / RFU, ADK / Fold change vs veh, ADK / RFU, RASSF2 / Fold change vs veh, RASSF2 / RFU, WIPF1 / Fold change vs veh, WIPF1 / RFU, LARP1B / Fold change vs veh, LARP1B / RFU, RASA1 / Fold change vs veh, RASA1 / RFU, RB1 / Fold change vs veh, RB1 / RFU, PPFIA1 / Fold change vs veh, PPFIA1 / RFU, MAT2A / Fold change vs veh, MAT2A / RFU, CCT5 / Fold change vs veh, CCT5 / RFU, WDR92 / Fold change vs veh, WDR92 / RFU, CUX1 / Fold change vs veh, CUX1 / RFU, TTC7A / Fold change vs veh, TTC7A / RFU, TMEM135 / Fold change vs veh, TMEM135 / RFU, DEPTOR / Fold change vs veh, DEPTOR / RFU, CPM / Fold change vs veh, CPM / RFU, DNAJB6 / Fold change vs veh, DNAJB6 / RFU, CACNA2D3 / Fold change vs veh, CACNA2D3 / RFU, DTX4 / Fold change vs veh, DTX4 / RFU, TFCP2 / Fold change vs veh, TFCP2 / RFU, GMCL1 /// GMCL1P1 / Fold change vs veh, GMCL1 /// GMCL1P1 / RFU, AEBP2 / Fold change vs veh, AEBP2 / RFU, SNHG1 /// SNORD22 /// SNORD25 /// SNORD26 /// SNORD27 /// SNORD28 /// SNORD29 /// SNORD31 / Fold change vs veh, SNHG1 /// SNORD22 /// SNORD25 /// SNORD26 /// SNORD27 /// SNORD28 /// SNORD29 /// SNORD31 / Fold change (Aza/veh), C12orf56 (ProbeSet 11735607_a_at) / Fold change (ACY-1035/veh), C12orf56 (ProbeSet 11735607_a_at) / Fold change (Aza/veh), FGFR1OP (ProbeSet 11751329_s_at) / Fold change (ACY-1035/veh), FGFR1OP (ProbeSet 11751329_s_at) / Fold change (Aza/veh), VPS36 (ProbeSet 11739960_a_at) / Fold change (ACY-1035/veh), VPS36 (ProbeSet 11739960_a_at) / RFU SYPL1 (11715823_x_at) / Fold change /veh SYPL1 (11715823_x_at) / RFU IGFBP7 (11715501_s_at) / Fold change /veh IGFBP7 (11715501_s_at) / RFU REEP3 (11722064_at) / Fold change /veh REEP3 (11722064_at) / RFU IGLL1 (11728026_x_at) / Fold change /veh IGLL1 (11728026_x_at): dose or concentration left out as unconfirmed
# Details: ProbeSet 11747937_a_at; LIST D
structure (smiles),measurement,value
Nc1ccc(-c2cccs2)cc1NC(=O)c1ccc2c(c1)cc(C1CC1)n2CCN1CCOCC1 [ACY-1035],"RFU, DNAJB6",348.58 RFU
